The source of these data is PMC7073110, “Molecular Rescue of Dyrk1A Overexpression Alterations in Mice with Fontup® Dietary Supplement: Role of Green Tea Catechins” (International Journal of Molecular Sciences, 2020).

Read-outs that look alike come from different tables or passages of the source.

Broadly, the remaining activity is the activity still measured, relative to the control. In general, IC50 refers to the concentration that inhibits the measured activity by half.

Data set [1] deals with T1, DYRK1A-ΔC (truncated DYRK1A, catalytic domain residues 1–502) (Rattus norvegicus, UniProt Q63470).
T1 construct: catalytic domain (residues 1–502) of rat DYRK1A; 6xHis; made in house; host or cells: Escherichia coli BL21
Nature of the data set: DYRK1A-ΔC inhibition assay, HPLC/UFLC-based with fluorescent peptide substrate. The class given is biochemical. Conditions: for remaining activity at 0.1 µM: read-out: DYRK1A-ΔC Remaining Activity at 0.1 µM; for remaining activity at 1 µM: read-out: DYRK1A-ΔC Remaining Activity at 1 µM; for remaining activity at 100 µM: read-out: DYRK1A-ΔC Remaining Activity at 100 µM; for Effect on DYRK1A-ΔC activity (in words): 0.1–100 µM. How it is done:
W. Becker (Aachen University, Aachen, Germany) and subcloned into pET28a plasmid to produce recombinant 6xHis-tagged DYRK1A catalytic domain (DYRK1A-ΔC). The pET28-Dyrk1a-ΔC plasmid was transformed into Escherichia coli cells (BL21) for production and purification of the enzyme. Briefly, transformed bacteria cells were grown at 37 °C for 4 h until OD was between 0.6–0.7 and further grown at 37 °C for 5 h in the presence of 0.5 mM isopropyl β-D-1-thiogalactopyranoside (IPTG). Cells were harvested by centrifugation at 6000× g, 4 °C for 10 min and the pellet was washed with PBS. The pellet was re-suspended in PBS supplemented with protease inhibitors, 1 mg/mL lysozyme and 0.1% Triton X-100. After 30 min incubation at 4 °C, the lysate was subjected to sonication on ice (6 min with pulse on 30 s/ off 30 s) and pelleted at 10,000× g, 4 °C for 30 min. The supernatant was incubated with His-select nickel resin (Sigma, Saint-Quentin Fallavier, France) for 2 h at 4 °C under agitation, and the resin was transferred into a column and washed with Tris-HCl 20 mM, pH 8, with 5 mM imidazole. Proteins were eluted in Tris-HCl 20 mM, pH 8, 300 mM imidazole, and dialyzed overnight against Tris-HCl 50 mM, pH 8, dithiothreitol (DTT) 10 mM, MgCl2 5 mM. Purified proteins were quantified with Bradford’s reagent (BioRad). Purity was assessed by sodium dodecyl sulfate-polyacrylamide gel electrophoresis (SDS-PAGE). Proteins were kept at −80 °C until use.
The fluorescent peptide substrate was derived from the sequence of the human transcription factor FKHR that is a physiological substrate of DYRK1A [46]. […] The enzymatic reaction was started by addition of the substrate and the mixture was incubated at 37 °C for 30 min. […] The peptides were monitored by fluorimetry (excitation at 485 nm, emission at 530 nm) and quantified by integration of the peak absorbance area. A calibration curve established with different known concentrations of peptides was used for quantification. For inhibition studies with green tea catechins, the compounds, dissolved in water, were added at four different concentrations (up to 100 µM) to the well prior to addition of ATP (1 mM final concentration). Determination of the mode of inhibition (competitive/non-competitive) of the compounds was obtained by carrying assays with different concentrations of ATP (200, 400 and 800 µM).

The nature of data set [2]: EGCG levels in plasma and brain after oral gavage of FontUp. The class given is in vivo, mice. Particulars: for concentration at 4 h / Kp at 4 h: male, mouse, two days; for Kp at 4 h: brain/plasma, read-out: Kp (brain concentration/plasma concentration). As to the method:
FontUp® was prepared daily as described above and strongly mixed at room temperature. Male mice received an oral gavage of three different doses (25, 50 and 75 mg/Kg), in the morning and in the evening for two or eight days. The last dose was administered 4 h before sacrifice.
Blood samples were obtained by retro-orbital sinus sampling with heparinized capillaries, collected into tubes containing a 1/10 volume of 3.8% sodium citrate, and immediately placed on ice. Plasma was isolated by centrifugation at 2500× g for 15 min at 4 °C. 80 µL of plasma samples were mixed with 20 µL 0.2 M NaH2PO4 solution containing 20% ascorbic acid and 0.1% EDTA, pH 3.6 for polyphenol assays. Plasma samples were store at −80 °C until use. Brains and hearts were harvested, snap-frozen in liquid nitrogen, and stored at −80 °C until use. Plasma total hcy, defined as the total concentration of hcy after quantitative reductive cleavage of all disulfide bonds, and total GSH were assayed using a fluorometric HPLC method previously described. ALT concentrations were determined using the Alanine Aminotransferase Activity Assay Kit (Sigma-Aldrich, Saint-Quentin Fallavier, France), based on the pyruvate generated. Plasma galectin-3 (Abcam ELISA kit, Paris, France), and fibronectin (Abcam ELISA kit) were assessed using sandwich ELISA. After removal of unbound conjugates, bound enzyme activity was assessed by use of a chromogenic substrate for measurement at 450 nm by a microplate reader (Flex Station 3, Molecular Devices, Ltd., Wokhingham, UK).
Brains were homogenized with 1.5 mm diameter beads for 2 min at 25 frequencies/second using a tissue lyser II (Qiagen, Hilden, Germany). The homogenates were centrifuged at 13,000 rpm for 10 min at 4 °C. The supernatants were transferred in a clear tube and mixed with the preservative solution as mentioned at one-tenth of its volume.
The catechin contents was analyzed as previously reported. Two hundred microliters of plasma or brain samples homogenates were thawed at room temperature and 50 µL of 0.4 M sodium phosphate buffer (pH 7.4) were added. The sample was mixed with 10 µL of beta-glucuronidase (250 units) and 10 µL of sulfatase (10 units) and then incubated at 37 °C for 45 min. Then the plasma or brain samples were partitioned with ethyl acetate in the ratio of 1:1 (v/v). The liquid-liquid extraction was carried out three times for 1 min by shaking on vortex and the organic phases (upper phases) were pooled. The combined ethyl acetate phases were evaporated under vacuum to dryness. The dry residue was re-dissolved in 50% methanol in water and was kept at −80 °C before HPLC analysis. HPLC was performed with a LC Prominence (Shimadzu, Kyoto, Japan) coupled with a Coulochem III electrode array detector (ESA Inc., Bedford, MA, USA) using a reverse- Interchrom C18 column (3 µm, 150 × 2.1 mm) eluted with the eluent described below at a flow rate of 0.35 mL/min at 45 °C. HPLC analysis was performed using a linear gradient system with mobile phase A (20 mM NaH2PO4) and mobile phase B (acetonitrile). Linear gradient elution was performed as follows: 100% mobile phase A for 10 min; 55% mobile phase A for 30 min and return to 100% mobile phase A for 15 min. The eluent was monitored using the Coulochem-III electrochemical detector (5011 analytical cell) with potential settings at 600 mV (E1) and 700 mV (E2). Quantification was carried out using the external standard method. Catechin quantification was performed after data acquisition using an LC Solution (Shimadzu).

The subject of another data set is DYRK1A. Particulars: cited from earlier work.
Data set [3] concerns the target T2, DYRK1A native human protein (Homo sapiens, UniProt Q13627).
T2 construct: purchased Thermo Fisher Scientific PV3785
Nature of the data set: DYRK1A inhibition assay, HPLC-based (native protein PV3785). The class given is biochemical.

Where [4] appears, read: 0.1 µM compound, 1 mM ATP, 60 µM peptide, normalized to no inhibitor.
Setting [5] is: 1 µM compound, 1 mM ATP, 60 µM peptide, normalized to no inhibitor.
Where [6] appears, read: 10 µM compound, 1 mM ATP, 60 µM peptide, normalized to no inhibitor, read-out: DYRK1A-ΔC Remaining Activity at 10 µM.
[7] abbreviates: 100 µM compound, 1 mM ATP, 60 µM peptide, normalized to no inhibitor.

Regarding `Oc1cc(O)c2c(c1)O[C@H](c1cc(O)c(O)c(O)c1)[C@H](O)C2` [EGC, epigallocatechin], in data set [1] (setting [4]), the remaining activity at 0.1 µM was 99.5 ± 3.2%. Besides, the remaining activity at 1 µM in data set [1] (setting [5]) was 93.6 ± 2.6%. Besides, in data set [1] (setting [6]), the remaining activity at 10 µM stood at 80.6 ± 11.4%. The remaining activity at 100 µM in data set [1] (setting [7]) amounted to 81.4 ± 12.8%. In data set [1] (1 mM ATP), the “Effect on DYRK1A-ΔC activity (in words)” value was “No effect”.

`O=C(O[C@@H]1Cc2c(O)cc(O)cc2O[C@@H]1c1cc(O)c(O)c(O)c1)c1cc(O)c(O)c(O)c1` [EGCG, epigallocatechin-3-gallate]: the remaining activity at 0.1 µM in data set [1] is 71.3 ± 4.6%. Further, the remaining activity at 1 µM in data set [1] came out at 16.3 ± 2.3%. The remaining activity at 10 µM in data set [1] (read-out: DYRK1A-ΔC Remaining Activity at 10 µM) is 6.4 ± 1.1%. The remaining activity at 100 µM in data set [1] worked out at 3.5 ± 0.8%. In data set [2] (WT and TgBACDyrk1A mice, FontUp D2, two days, from Kp), the “Crossing of the blood-brain barrier (in words)” value is listed as “had crossed the BBB”. The concentration at 4 h is 50 nM in data set [2] (TgBACDyrk1A, brain, 50 mg/Kg, TgDyrk1A mice, FontUp D2 oral gavage, n = 5, p < 0.07); 36 ± 11 nM in data set [2] (TgBACDyrk1A, plasma, 50 mg/Kg, TgDyrk1A mice, FontUp D2 oral gavage, n = 5); 25 ± 7 nM in data set [2] (brain, 50 mg/Kg, WT mice, FontUp D2 oral gavage, n = 5); 65 ± 23 nM in data set [2] (plasma, 50 mg/Kg, WT mice, FontUp D2 oral gavage, n = 5); 104 ± 11.2 nM in data set [2] (plasma, WT mice, FontUp high dose D3 (75 mg/Kg) oral gavage, last dose 4 h before sacrifice); 63 ± 10.8 nM in data set [2] (plasma, WT mice, FontUp intermediate dose D2 (50 mg/Kg) oral gavage, last dose 4 h before sacrifice). The same compound yielded a concentration at 4 h in data set [2] (plasma, WT mice, FontUp low dose D1 (25 mg/Kg) oral gavage, last dose 4 h before sacrifice) of 28 ± 0.0003 nM. Besides, the Kp at 4 h in data set [2] (TgBACDyrk1A, 50 mg/Kg, TgDyrk1A mice, FontUp D2 oral gavage) was 3.6 ± 0.82; in data set [2] (50 mg/Kg, WT mice, FontUp D2 oral gavage), 1.2 ± 0.33. Moreover, the “Mode of inhibition of DYRK1A” value in the data set on DYRK1A (against both substrates) is on record as “non-competitive inhibitor”. The IC50 with DYRK1A (read-out: IC50 to inhibit DYRK1A activity) was 330 nM.

Consider `Oc1cc(O)c2c(c1)O[C@H](c1ccc(O)c(O)c1)[C@H](O)C2` [EC, epicatechin], for which the remaining activity at 0.1 µM in data set [1] (setting [4]) was found to be 89.2 ± 9.5%. Further, the remaining activity at 1 µM in data set [1] (setting [5]) was found to be 84.1 ± 9.1%. Moreover, the remaining activity at 10 µM in data set [1] (setting [6]) amounted to 95.6 ± 8.1%. The remaining activity at 100 µM in data set [1] (setting [7]) is 88.7 ± 8.2%. The “Effect on DYRK1A-ΔC activity (in words)” value in data set [1] (1 mM ATP) is on record as “No effect”.

Regarding `O=C(O[C@@H]1Cc2c(O)cc(O)cc2O[C@@H]1c1ccc(O)c(O)c1)c1cc(O)c(O)c(O)c1` [ECG, epicatechin gallate], the remaining activity at 0.1 µM came out at 78.1 ± 3.6% in data set [1] (setting [4]) and 69.9 ± 3.9% in data set [3] (0.1 µM compound, 1 mM ATP, 60 µM peptide, native DYRK1A). In addition, the remaining activity at 1 µM was found to be 27.1 ± 7.3% in data set [1] (setting [5]) and 12.5 ± 2.4% in data set [3] (1 µM compound, 1 mM ATP, 60 µM peptide, native DYRK1A). Further, the remaining activity at 10 µM in data set [1] (10 µM compound, 200 µM ATP, up to 60 min at 37 °C, read-out: DYRK1A-ΔC Remaining Activity With 200 µM ATP) was 8 ± 0.8%; in data set [1] (10 µM compound, 400 µM ATP, up to 60 min at 37 °C, read-out: DYRK1A-ΔC Remaining Activity with 400 µM ATP), 6.5 ± 0.9%; in data set [1] (10 µM compound, 800 µM ATP, up to 60 min at 37 °C, read-out: DYRK1A-ΔC Remaining Activity with 800 µM ATP), 4 ± 0.5%; in data set [1] (setting [6]), 11.8 ± 4.2%; in data set [3] (10 µM compound, 200 µM ATP, up to 60 min at 37 °C, read-out: DYRK1A Remaining Activity with 200 µM ATP), 9.4 ± 1.4%; in data set [3] (10 µM compound, 400 µM ATP, up to 60 min at 37 °C, read-out: DYRK1A Remaining Activity with 400 µM ATP) it was 7 ± 1.1%. Also, the remaining activity at 10 µM in data set [3] (10 µM compound, 800 µM ATP, up to 60 min at 37 °C, read-out: DYRK1A Remaining Activity with 800 µM ATP) stood at 5.4 ± 0.9%; in data set [3] (10 µM compound, 1 mM ATP, 60 µM peptide, native DYRK1A, read-out: DYRK1A Remaining Activity at 10 µM), 4.6 ± 0.9%. Moreover, the remaining activity at 100 µM in data set [1] (setting [7]) amounted to 7.6 ± 2.3%; in data set [3] (100 µM compound, 1 mM ATP, 60 µM peptide, native DYRK1A), 2.3 ± 0.5%. In addition, the “Mode of inhibition of DYRK1A against ATP” value in data set [3] (DYRK1A-ΔC and DYRK1A, 10 µM compound, ATP 200–800 µM) is reported as “noncompetitive inhibitor”.
